Measured values from patent publication US20230338340A1, “Methods of Treating Cystic Fibrosis” (The Trustees of Dartmouth College, priority 2020, published 2023).

Legend:
[1] = biological target: T1, Human-Dab2-DH (Homo sapiens, UniProt P98082); assay: Dab2 FP competition assay via HTS; assay type: binding
T1 construct: fused on or other part: N-terminal 10xHis tag with a 3C protease site, cleaved off unless otherwise indicated
T1 sequence (P98082 33-178 limits assumed): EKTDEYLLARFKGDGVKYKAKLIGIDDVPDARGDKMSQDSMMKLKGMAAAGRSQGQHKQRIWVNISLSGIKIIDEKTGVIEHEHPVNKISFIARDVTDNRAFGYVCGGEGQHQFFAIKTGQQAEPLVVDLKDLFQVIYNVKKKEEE
Protocol: CALP and/or Dab2 inhibition assays were performed in biochemical “mix-and-measure” format in order to evaluate the effects on activation and inhibition of CALP and/or Dab2 by the compounds of the disclosure. Brief assay procedure is provided below. Unless otherwise specified, all of the compounds were obtained from commercial sources.
Dab-2 inhibitors were also identified by FP competition assays via HTS. Human-Dab2-DH, residues 31-191 (Uniprot: P98082), and trDab2-DH (residues 33-178) was subcloned into the pET16b vector via PCR utilizing the restriction enzyme sites of Xhol and BamHI. The construct was designed with a 3C protease cleavage site directly upstream and in-frame with the protein coding sequence. DNA was sequence verified. (0.1 mM) IPTG was used to induce protein expression in E. coli BL21(DE3)RIL cells, after reaching an O.D. of […]. […] Followed by 3C cleavage of the 10×His tag (unless otherwise indicated), and a second nickel affinity column to remove the 3C protease and excess tag. Dab2-DH was dialyzed into FP storage buffer (25 mM Tris pH 8.0, 150 mM NaCl, 0.1 mM TCEP, and 0.02% sodium azide). Fluorescent reporter peptides, TIVR*STA02 (TMR*-[…]) and TMR*STA03 (TMR*-[…]), were purchased commercially with the following sequence where TMR* denotes a N-terminal tetramethylrhodamine group coupled via an aminohexanoic acid linker. An unlabled positive control peptide STA02 ([…]) was also purchased commercially. Inhibitors of Dab2-DH were identified from a variety of sources with various protocols outlined below.
For screens conducted at the Novartis Institutes for BioMedical Research FAST Lab, single-dose HTS assays were performed with libraries comprising ˜52,000 compounds at 20 μM doses. Experiments were conducted as described for screens at the University of Pittsburgh Lab and Drug Discovery Institute, except that Dab2-DH, not trDab2-DH, was used as the protein source.
For screens conducted at the Broad Institute, compound transfers were done using a 384-well pin tool equipped with 100 nL hydrophobic surface coated pins. 100 nL of DMSO (negative control), STA02 (positive control), or library compounds were dispensed into 20 μL of protein (200 nM) and reporter (F*-STA02, 30 nM) mixture with 0.1 mg/ml mouse IgG and 0.5 mM Thesit. Final concentrations in the mixture were DMSO ([…]), STA02 (20 μM), and compounds (18 μM). Plates were incubated for 35-45 minutes before measuring polarization. Compounds were tested in duplicates on two separate plates. Positive and negative controls were included in each individual plate.
For experiments conducted at the University of Pittsburgh Lab and Drug Discovery Institute, single-dose HTS assays were performed with a library containing ˜220,000 compounds. On the day of screening, a master mix of equal parts trDab2-DH (900 nM) and TMP-STA03 (90 nM) was prepared. Compound plates containing assay ready 2 μL aliquots of a 1 mM stock solution in DMSO were thawed, reconstituted in FP buffer to a concentration of 30 μM in 3% DMSO, and five μL transferred to low volume assay plates using a Perkin Elmer MDT. Ten μL of master mix were added by a Microflo bulk liquid dispenser (Biotek, Winooski, VT) and processed as described in the general protocol above. Each plate contained 32 wells of positive (Dab2-DH+probe+DMSO) and negative (Dab2-DH+probe +10 μM STA03) controls. Plates were read at 1.5-h and 4-h on the Envision multilabel reader.

[2] = test system: HBE primary cells; assay: Airway surface liquid (ASL) volume after forskolin stimulus in HBE primary cells; assay type: cell-based; settings: 20 μM, basolateral, 4 hr
Protocol: A functional test for CFTR activity is the determination of airway surface liquid (ASL) height, reflecting ion transport and associated osmotic recruitment of water, following activation of CFTR ion transport via forskolin stimulation. This functional test is directly related to one of the hallmarks of CF: the viscosity of airway mucus due to lack of anion transport.
Example 6 or Example 9 (20 μM each) or DMSO (CTR; 0.02%; […]) was added to the basolateral medium for 4 hr. Subsequently, forskolin (20 μM) and IBMX (1 mM) was added to the apical and basolateral medium. The test compounds were added for 30 min directly to the basolateral medium, and they were added in 10 μL medium to the apical side. The 10 μL volume was subtracted from the ASL volume (N=2-4/group).

[3] = test system: CFTR; assay: Apical membrane abundance of CFTR in WT-CFBE cells (biotinylation, immunoblot); assay type: cell-based; settings: 1 μM
Protocol: Apical membrane CFTR was normalized for CFTR abundance in cell lysate. N=2 (1h and 2 h) and n=3 (4h). Error bar S.E.M. *p<0.05 versus vehicle control (CTRL; 0.03% water).

[4] = test system: CFTR; assay: CFTR activity in F508del HBE primary cells; assay type: cell-based; settings: 1 μM, 4 hours
[5] = biological target: T2, Dab2-DH (Homo sapiens, UniProt P98082); assay: Dab2-DH FP competitive displacement experiments (F*-STA02 reporter); assay type: binding; settings: text b140
T2 construct: Human-Dab2-DH, residues 31-191 (Uniprot: P98082); 10xHis (3C protease site) (N, cleaved yes); made in house; host or cells: E. coli BL21(DE3)RIL
T2 sequence (P98082 31-191): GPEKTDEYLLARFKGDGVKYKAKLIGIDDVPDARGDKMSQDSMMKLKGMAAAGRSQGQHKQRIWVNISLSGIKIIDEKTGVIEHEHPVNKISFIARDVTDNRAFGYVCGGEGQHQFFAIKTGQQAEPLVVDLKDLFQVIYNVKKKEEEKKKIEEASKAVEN

[6] = with VX-770, C-18, CFFT-002, Fsk and IBMX

COc1cc(O)c(C(=O)O)c(-c2cc(O)c(O)cc2C)c1 [Example 9, 3,4′,5′-trihydroxy-5-methoxy-2′-methyl-[1,1′-biphenyl]-2-carboxylic acid]
IC50 [1]: 0.037 µM | ASL volume generated in response to forskolin stimulus [2]: increased the ASL volume

C=C1c2cccc(O)c2C(O)=C2C(=O)[C@]3(O)C(O)=C(C(N)=O)C(=O)[C@@H](N(C)C)[C@@H]3[C@@H](O)[C@H]12 [Example 10, (4S,4aR,5S,5aR,12aR)-4-(dimethylamino)-1,5,10,11,12a-pentahydroxy-6-methylene-3,12-dioxo-3,4,4a,5,5a,6,12,12a-octahydrotetracene-2-carboxamide]
Abundance of CFTR (apical membrane) [3]: increase in the abundance of CFTR | CFTR activity [4, 6]: significant enhancement of CFTR activity | Channel activity relative to absence of C-18 and CFFT-002 [4, 6]: approximately 2 fold | CFTR activity ([4]; with VX-770, Fsk and IBMX): significant enhancement of CFTR activity

CN1CCc2cccc3c2[C@@H]1Cc1ccc(O)c(O)c1-3.Cl [Example 12, (S)-6-methyl-5,6,6a,7-tetrahydro-4H-dibenzo[de,g]quinoline-10,11-diol hydrochloride]
Inhibitory activity Dab2 at Cmax ([1]; at Cmax, cells printed with %): ~−95% | Ki [5]: 1.61 ± 0.74 µM
